These results are taken from patent US11208405B2, “Pyrrole derivatives as PLK1 inhibitors” (SENTINEL ONCOLOGY LIMITED, priority 2017, dated 2021).

Where a name gives a salt, the structure may show the parent alone.

One data set concerns the target cytochrome P450 2C9 (Homo sapiens, UniProt P11712). Description: Cytochrome P450 inhibition, 2C9. Type of data set: in vitro ADME.
The next data set concerns EIF2AK4. Description: Kinase selectivity assay (DiscoverX KinomeScreen), EIF2AK4. Type of data set: binding. The note with it: EIF2AK4, 5 μM. The procedure:
(§1) The compound of Example 33 was tested for off-target activity against a panel of fifty five kinases bearing functional or structural similarity to PLK1 at a concentration of 5 μM using the DiscoverX KinomeScreen assay.

In another data set the target is T1, NEK10 (Homo sapiens, UniProt Q6ZWH5).
T1 construct: purchased DiscoverX
Description: Kinase selectivity assay (DiscoverX KinomeScreen), NEK10. Type of data set: binding. The settings on record: NEK10, 5 μM; read-out: % Control. The procedure: as §1

Another data set concerns the target T2, AAK1 (Homo sapiens, UniProt Q2M2I8).
T2 construct: purchased DiscoverX
Kind of data set: Kinase selectivity assay (DiscoverX KinomeScreen), AAK1. The settings on record: AAK1, 5 μM; read-out: % Control. It is filed as binding. The procedure: as §1

In the next data set the target is T3, AURKC (Homo sapiens, UniProt Q9UQB9).
T3 construct: purchased DiscoverX
T3 sequence (Q9UQB9 whole entry): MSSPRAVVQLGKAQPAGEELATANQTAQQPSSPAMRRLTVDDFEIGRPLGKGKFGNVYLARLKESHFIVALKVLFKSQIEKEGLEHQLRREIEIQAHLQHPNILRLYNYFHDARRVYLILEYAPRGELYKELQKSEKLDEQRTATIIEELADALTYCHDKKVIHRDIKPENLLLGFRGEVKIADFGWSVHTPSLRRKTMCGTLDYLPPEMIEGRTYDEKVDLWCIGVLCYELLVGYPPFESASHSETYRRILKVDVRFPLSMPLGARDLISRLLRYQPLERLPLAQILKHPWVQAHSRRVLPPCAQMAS
Description: Kinase selectivity assay (DiscoverX KinomeScreen), AURKC. It is filed as binding. The settings on record: read-out: % Control. The method, then:
as §1

In another data set the target is T4, TLK2 (Homo sapiens, UniProt Q86UE8).
T4 construct: purchased DiscoverX
Description: Kinase selectivity assay (DiscoverX KinomeScreen), TLK2. Type of data set: binding. The settings on record: TLK2, 5 μM; read-out: % Control. The method, then:
as §1

The target of the next data set is T5, NEK9 (Homo sapiens, UniProt Q8TD19).
T5 construct: purchased DiscoverX
T5 sequence (Q8TD19 whole entry): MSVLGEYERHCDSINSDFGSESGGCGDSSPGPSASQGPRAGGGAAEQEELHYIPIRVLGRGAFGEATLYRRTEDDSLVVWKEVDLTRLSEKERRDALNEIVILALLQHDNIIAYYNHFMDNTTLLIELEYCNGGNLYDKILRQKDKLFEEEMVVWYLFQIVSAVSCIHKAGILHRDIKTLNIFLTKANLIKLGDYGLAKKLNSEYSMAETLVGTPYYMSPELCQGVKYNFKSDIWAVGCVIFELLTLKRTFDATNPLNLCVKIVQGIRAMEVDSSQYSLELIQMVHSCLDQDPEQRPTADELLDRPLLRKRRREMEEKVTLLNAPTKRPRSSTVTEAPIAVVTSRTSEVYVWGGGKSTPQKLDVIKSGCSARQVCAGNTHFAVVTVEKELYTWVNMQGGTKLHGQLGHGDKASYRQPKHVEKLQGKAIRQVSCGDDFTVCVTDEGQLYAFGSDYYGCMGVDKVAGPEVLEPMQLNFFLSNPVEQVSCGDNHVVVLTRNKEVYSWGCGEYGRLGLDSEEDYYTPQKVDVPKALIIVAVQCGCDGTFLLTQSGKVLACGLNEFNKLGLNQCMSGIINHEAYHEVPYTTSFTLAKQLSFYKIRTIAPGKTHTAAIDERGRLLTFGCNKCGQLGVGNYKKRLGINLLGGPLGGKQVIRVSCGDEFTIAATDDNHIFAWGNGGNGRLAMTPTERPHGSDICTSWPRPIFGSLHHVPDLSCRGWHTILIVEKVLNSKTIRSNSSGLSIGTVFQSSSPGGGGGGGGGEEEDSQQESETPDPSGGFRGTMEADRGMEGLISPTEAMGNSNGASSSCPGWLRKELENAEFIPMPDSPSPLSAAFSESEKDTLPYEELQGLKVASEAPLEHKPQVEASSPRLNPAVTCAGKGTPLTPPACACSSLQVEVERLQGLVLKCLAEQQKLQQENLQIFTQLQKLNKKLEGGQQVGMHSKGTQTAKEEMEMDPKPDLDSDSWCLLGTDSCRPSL
Description: Kinase selectivity assay (DiscoverX KinomeScreen), NEK9. Type of data set: binding. The settings on record: NEK9, 5 μM; read-out: % Control. The method, then:
as §1

In a further data set the target is T6, PLK4 (Homo sapiens, UniProt O00444).
T6 construct: purchased DiscoverX
T6 sequence (O00444 whole entry): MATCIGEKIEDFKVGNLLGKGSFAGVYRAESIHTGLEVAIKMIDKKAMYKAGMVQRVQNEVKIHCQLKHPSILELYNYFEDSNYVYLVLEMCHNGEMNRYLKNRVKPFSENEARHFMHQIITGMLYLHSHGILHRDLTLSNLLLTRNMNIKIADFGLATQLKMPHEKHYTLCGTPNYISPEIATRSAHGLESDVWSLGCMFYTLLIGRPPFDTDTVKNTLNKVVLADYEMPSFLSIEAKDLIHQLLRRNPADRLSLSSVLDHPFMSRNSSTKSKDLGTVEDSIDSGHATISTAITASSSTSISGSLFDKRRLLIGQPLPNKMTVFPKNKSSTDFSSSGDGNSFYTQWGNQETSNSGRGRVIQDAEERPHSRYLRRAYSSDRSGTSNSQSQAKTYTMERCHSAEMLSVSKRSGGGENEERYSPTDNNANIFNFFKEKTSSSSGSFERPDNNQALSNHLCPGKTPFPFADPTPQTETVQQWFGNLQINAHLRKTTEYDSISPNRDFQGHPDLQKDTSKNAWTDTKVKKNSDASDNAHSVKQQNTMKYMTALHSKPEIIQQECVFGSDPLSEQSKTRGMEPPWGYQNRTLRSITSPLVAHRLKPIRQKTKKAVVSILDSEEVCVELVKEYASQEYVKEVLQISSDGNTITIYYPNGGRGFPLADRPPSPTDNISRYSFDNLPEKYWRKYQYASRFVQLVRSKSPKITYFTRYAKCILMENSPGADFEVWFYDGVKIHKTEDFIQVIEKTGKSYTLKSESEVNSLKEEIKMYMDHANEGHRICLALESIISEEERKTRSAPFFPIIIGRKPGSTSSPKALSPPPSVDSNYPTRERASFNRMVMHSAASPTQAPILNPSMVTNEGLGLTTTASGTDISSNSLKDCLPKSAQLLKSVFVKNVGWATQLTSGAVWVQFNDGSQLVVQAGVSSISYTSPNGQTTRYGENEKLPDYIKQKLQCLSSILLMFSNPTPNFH
Description: Kinase selectivity assay (DiscoverX KinomeScreen), PLK4. It is filed as binding. The settings on record: PLK4, 5 μM; read-out: % Control. The procedure:
as §1

The subject of a further data set is HCT116 cells. Kind of data set: Effects on HCT116 colorectal cancer cell viability (cell titre blue, 72 hours). The note with it: Homo sapiens, HCT-116, HCT116 cell line. Type of data set: cell-based.
Another data set addresses T7, TLK1 (Homo sapiens, UniProt Q9UKI8).
T7 construct: purchased DiscoverX
Description: Kinase selectivity assay (DiscoverX KinomeScreen), TLK1. The settings on record: TLK1, 5 μM; read-out: % Control. It is filed as binding. The procedure: as §1

Data set [1] deals with glioblastoma cell line 907313. Kind of data set: Glioblastoma cancer cell viability, cell line 907313. Type of data set: cell-based. The procedure: (§2) Assay to Measure the Effects of Compounds of the Invention on Glioblastoma Cancer Cell Viability
(§3) The compound of Example 33 was tested for inhibitory activity against the glioblastoma cell lines in Table 7 below.

The subject of the next data set is wild-type HeLa cell line. Description: Wild-type versus KRAS HeLa cell viability: wild-type KRAS transgene. Type of data set: cell-based. The note with it: Homo sapiens; HeLa cells expressing wild-type KRAS, 72 hours; read-out: WT GI50. The method, then:
Assay to Measure the Effects of Compounds of the Invention on Wild-Type Versus KRAS HeLa Cell Viability
Identifying synthetic lethal interactions between targeted small molecule therapies and characterised oncogenic mutations is a goal of modern oncology drug discovery efforts. To this end, PLK1-PBD inhibitors were tested on HeLa cells engineered to inducibly express wild-type or oncogenic KrasG12V transgenes using the FLP-in/T-Rex system (Invitrogen). Cells were plated, and then treated with or without Doxycycline to induce transgene expression, and then treated with serially-diluted PBD inhibitors. After 72 hours of incubation, cell viability was assessed using the Cell Titre Blue reagent (Promega) and a BMG Pherastar plate reader. The effect of PBD inhibition on cell viability with either wild-type or oncogenic G12V KRAS was assessed using the graphing/curve-fitting packages in GraphPad Prism.

The subject of data set [2] is glioblastoma cell line 905984. Description: Glioblastoma cancer cell viability, cell line 905984. Type of data set: cell-based. The method, then: as §2, §3

T7 sequence (Q9UKI8 whole entry): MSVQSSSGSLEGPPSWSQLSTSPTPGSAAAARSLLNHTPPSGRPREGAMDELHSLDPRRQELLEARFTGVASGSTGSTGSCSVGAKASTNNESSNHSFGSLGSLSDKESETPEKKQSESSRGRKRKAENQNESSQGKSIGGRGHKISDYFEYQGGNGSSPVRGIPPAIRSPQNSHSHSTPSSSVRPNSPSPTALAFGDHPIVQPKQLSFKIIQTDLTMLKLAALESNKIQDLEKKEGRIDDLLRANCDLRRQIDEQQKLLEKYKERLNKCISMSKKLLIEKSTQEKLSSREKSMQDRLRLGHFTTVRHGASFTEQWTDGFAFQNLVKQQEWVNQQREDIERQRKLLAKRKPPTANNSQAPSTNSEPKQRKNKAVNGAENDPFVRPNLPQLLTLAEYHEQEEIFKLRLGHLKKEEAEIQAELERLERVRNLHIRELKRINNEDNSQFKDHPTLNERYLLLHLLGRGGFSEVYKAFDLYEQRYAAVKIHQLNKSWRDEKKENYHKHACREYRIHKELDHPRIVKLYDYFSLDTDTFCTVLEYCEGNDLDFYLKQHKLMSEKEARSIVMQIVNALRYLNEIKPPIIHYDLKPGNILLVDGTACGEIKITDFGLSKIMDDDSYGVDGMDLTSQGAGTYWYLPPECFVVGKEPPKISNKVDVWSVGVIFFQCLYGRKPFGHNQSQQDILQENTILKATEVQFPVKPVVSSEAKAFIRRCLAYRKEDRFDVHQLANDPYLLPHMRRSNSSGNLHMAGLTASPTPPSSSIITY
Sequence of cytochrome P450 2C9 (P11712 whole entry): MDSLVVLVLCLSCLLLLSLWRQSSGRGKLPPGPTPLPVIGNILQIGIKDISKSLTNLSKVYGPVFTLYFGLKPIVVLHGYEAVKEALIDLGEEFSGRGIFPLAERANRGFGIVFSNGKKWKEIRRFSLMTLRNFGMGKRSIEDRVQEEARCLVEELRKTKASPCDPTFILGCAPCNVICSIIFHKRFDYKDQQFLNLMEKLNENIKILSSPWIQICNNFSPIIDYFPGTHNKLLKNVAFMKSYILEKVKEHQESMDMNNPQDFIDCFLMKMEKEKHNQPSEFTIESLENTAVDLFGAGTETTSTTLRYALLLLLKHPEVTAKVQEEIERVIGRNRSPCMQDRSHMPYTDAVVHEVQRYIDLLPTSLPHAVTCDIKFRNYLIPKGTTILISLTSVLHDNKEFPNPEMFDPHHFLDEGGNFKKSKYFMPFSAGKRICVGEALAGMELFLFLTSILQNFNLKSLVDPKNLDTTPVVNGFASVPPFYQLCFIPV
T2 sequence (Q2M2I8 whole entry): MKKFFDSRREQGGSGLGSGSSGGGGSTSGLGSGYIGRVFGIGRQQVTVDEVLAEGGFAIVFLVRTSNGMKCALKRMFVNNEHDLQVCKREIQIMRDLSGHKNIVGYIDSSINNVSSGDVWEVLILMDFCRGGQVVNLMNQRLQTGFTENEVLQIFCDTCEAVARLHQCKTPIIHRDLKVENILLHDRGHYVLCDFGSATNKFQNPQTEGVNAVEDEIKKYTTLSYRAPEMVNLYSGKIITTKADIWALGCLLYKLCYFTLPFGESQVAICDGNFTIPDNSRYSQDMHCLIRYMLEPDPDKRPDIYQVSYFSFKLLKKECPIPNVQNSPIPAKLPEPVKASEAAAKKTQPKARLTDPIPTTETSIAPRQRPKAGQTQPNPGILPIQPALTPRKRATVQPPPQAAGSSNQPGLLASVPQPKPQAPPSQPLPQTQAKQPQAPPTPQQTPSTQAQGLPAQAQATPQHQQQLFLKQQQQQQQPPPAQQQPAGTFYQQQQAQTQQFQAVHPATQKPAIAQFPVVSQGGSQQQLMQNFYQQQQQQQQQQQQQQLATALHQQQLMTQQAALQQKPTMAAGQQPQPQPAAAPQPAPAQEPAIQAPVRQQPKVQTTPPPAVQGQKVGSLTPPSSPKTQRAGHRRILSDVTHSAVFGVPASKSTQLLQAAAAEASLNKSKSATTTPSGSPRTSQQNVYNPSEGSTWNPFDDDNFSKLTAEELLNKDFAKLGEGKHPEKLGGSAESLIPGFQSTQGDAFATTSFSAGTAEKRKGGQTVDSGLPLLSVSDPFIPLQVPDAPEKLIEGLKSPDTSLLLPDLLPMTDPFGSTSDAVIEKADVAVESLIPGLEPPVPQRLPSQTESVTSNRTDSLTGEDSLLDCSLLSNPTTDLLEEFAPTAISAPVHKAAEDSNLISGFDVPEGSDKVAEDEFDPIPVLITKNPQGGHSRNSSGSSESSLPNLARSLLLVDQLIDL

As a reminder, the GI50 is the concentration giving 50% growth inhibition. As usually defined, the IC50 is the midpoint of a concentration-inhibition curve. Take `CN(C)CCNC(=O)c1ccc(-c2ccc(-c3ccc(Cl)cc3)n2-c2ccccc2C(F)(F)F)cc1` [Example 33, 4-[5-(4-chlorophenyl)-1-[2-(trifluoromethyl)phenyl]pyrrol-2-yl]-N-[2-(dimethylamino)ethyl]benzamide Hydrochloride]: the “cytochrome P450 inhibition 2C9” value at cytochrome P450 2C9 was above 10 µM. The “% Control” value with EIF2AK4 was 97%. The remaining activity at 5 µM came to 94% on NEK10; 100% on AAK1; 85% at AURKC; 94% at TLK2; 92% on NEK9; 90% on PLK4. Besides, on TLK1, the remaining activity at 5 µM was determined as 99%. For the same compound, the GI50 was found to be 10 nM in the data set with HCT116 cells and 20 nM in the data set on wild-type HeLa cell line. The IC50 was found to be 1110 nM in [1] and 241 nM in data set [2].
